Source: ChEMBL document CHEMBL5608200, “Design, synthesis, and evaluation of antitumor activity of 2-arylmethoxy-4-(2-fluoromethyl-biphenyl-3-ylmethoxy) benzylamine derivatives as PD-1/PD-l1 inhibitors” (Eur J Med Chem, 2024)
Active and inactive are the calls of the source. The calls are words filed in the database; no cut-off is given here.

What was measured:
[1] = system: HCC827; experiment: Induction of T-cell mediated apoptosis in human HCC827 cells cocultured with PMA-stimulated Jurkat T cells assessed as mortality rate at 16 uM incubated for 48 hrs by CCK-8 assay; assay type: functional
[2] = system: HCC827; experiment: Induction of T-cell mediated apoptosis in human HCC827 cells cocultured with PMA-stimulated Jurkat T cells assessed as mortality rate at 32 uM incubated for 48 hrs by CCK-8 assay; assay type: functional
[3] = system: MDA-MB-231; experiment: Induction of T-cell mediated apoptosis in human MDA-MB-231 cells cocultured with PMA-stimulated Jurkat T cells assessed as mortality rate at 8 uM incubated for 48 hrs by CCK-8 assay; assay type: functional
[4] = system: A549; experiment: Induction of T-cell mediated apoptosis in human A549 cells cocultured with PMA-stimulated Jurkat T cells assessed as mortality rate at 1 to 32 uM incubated for 48 hrs by CCK-8 assay; assay type: functional, cell-based; details: dose 1-32 µM
[5] = system: HCC827; experiment: Cytotoxicity against human HCC827 cells at 1 to 32 uM incubated for 48 hrs by CCK-8 assay; assay type: functional, cell-based; details: dose 1-32 µM
[6] = system: Jurkat; experiment: Cytotoxicity against human Jurkat T cells at 1 to 32 uM incubated for 48 hrs by CCK-8 assay; assay type: functional, cell-based; details: dose 1-32 µM
[7] = AUC(0 to infinity) in Sprague-Dawley rat at 10 mg/kg, iv measured upto 48 hrs by LC-MS/MS analysis; assay type: ADME, organism-based; details: in vivo
[8] = Apparent volume of distribution in Sprague-Dawley rat at 10 mg/kg, iv measured upto 48 hrs by LC-MS/MS analysis; assay type: ADME, organism-based; details: in vivo
[9] = Cmax in Sprague-Dawley rat at 50 mg/kg, IG measured upto 48 hrs by LC-MS/MS analysis; assay type: ADME, organism-based; details: in vivo, po
[10] = Toxicity in PD-1/PD-L1 humanized C57BL/6 mouse implanted with mouse MC38 cells expressing hPD-L1 assessed as weight loss at 50 mg/kg, IG QD administered for 15 days; assay type: organism-based, MC-38; details: in vivo, po, 360 h, time 15 day
[11] = system: MC-38; experiment: Antitumor activity against mouse MC38 cells expressing hPD-L1 implanted in PD-1/PD-L1 humanized C57BL/6 mouse assessed as increase in ratio of CD3+/CD8+ to CD3+/CD4+ cells at 50 mg/kg, IG QD administered for 15 days by flow cytometry analysis; assay type: functional, organism-based; details: time 15.0 day
[12] = system: MC-38; experiment: Antitumor activity against mouse MC38 cells expressing hPD-L1 implanted in PD-1/PD-L1 humanized C57BL/6 mouse assessed as upregulation of CXCR3 mRNA expression at 50 mg/kg, IG QD administered for 15 days by RT-PCR analysis; assay type: functional, organism-based; details: time 15.0 day
[13] = system: MC-38; experiment: Antitumor activity against mouse MC38 cells expressing hPD-L1 implanted in PD-1/PD-L1 humanized C57BL/6 mouse assessed as upregulation of granzyme B expression at 50 mg/kg, IG QD administered for 15 days by immunohistochemistry analysis; assay type: functional, organism-based; details: time 15.0 day
[14] = Toxicity in PD-1/PD-L1 humanized C57BL/6 mouse implanted with mouse MC38 cells expressing hPD-L1 assessed as change in heart morphology at 50 mg/kg, IG QD administered for 15 days by H and E staining based inverted fluorescent microscopic assay; assay type: organism-based, MC-38; details: in vivo, po, 360 h, time 15 day
[15] = Toxicity in PD-1/PD-L1 humanized C57BL/6 mouse implanted with mouse MC38 cells expressing hPD-L1 assessed as hepatotoxicity at 50 mg/kg, IG QD administered for 15 days; assay type: organism-based, MC-38; details: in vivo, po, 360 h, time 15 day

Question: For `N#Cc1cncc(COc2cc(OCc3cccc(-c4ccc5c(c4)OCCO5)c3C(F)F)ccc2CNCCO)c1`, which Activity [1] is on record?
Answer: 59.6%

Question: What about the Activity [2] of the same compound?
Answer: 71.2%

Question: And the Activity [3]?
Answer: 45.9%

Question: And the Activity [4]?
Answer: inactive

Question: And the Activity [5]?
Answer: inactive

Question: And the Activity [6]?
Answer: inactive

Question: And the AUC(0-inf) [7]?
Answer: 13900 ng·h/mL

Question: And the Vz [8]?
Answer: 10.1 L/kg

Question: What about the Cmax [9] of the same compound?
Answer: 13500 ng/mL

Question: And the Activity [10]?
Answer: Non-Toxic

Question: And the Activity [11]?
Answer: Active

Question: And the Activity [12]?
Answer: Active

Question: What about the Activity [13] of the same compound?
Answer: Active

Question: And the Activity [14]?
Answer: Non-Toxic

Question: And the Activity [15]?
Answer: Non-Toxic
